Test system: JR251 or RBL cells
Experiment: Store-operated calcium entry IC50 in either JR251 or RBL cells
Type: cell-based
Details: not given
Protocol: (§1) The day prior to performing the assay Orai1/STIM1 stable cells were plated in 50 μL of complete medium at 90-95% confluence in a 384 well plate. Cells were grown at 37° C./6% CO2 overnight. On the day of the assay, 1.5 μM fluo-4-AM (Invitrogen) in complete medium was added to the cells, which were then incubated for 1 hour at RT. Cells were washed once in Ca^2+-free HBSS (Hank's buffered saline solution) and 35 μl of Ca^2+-free HBSS was added to each well. Test compounds were added to wells in a 10 μL Ca^2+-free HBSS solution, prepared at 4.5× the desired final concentration, and incubated for 30 minutes at RT. The initial baseline fluorescence signal was then measured with a FLIPR^384 (Molecular Devices) plate reader. Calcium entry was initiated by adding 5 μl of 10× CaCl2 (10 mM) in HBSS, and changes in cellular fluorescence were measured with the FLIPR^384 plate reader. In each well, the magnitude of the fluorescence signal as a result of calcium entry into the cell was determined by calculating the difference between the peak fluorescence signal measured after calcium addition and the initial baseline fluorescence signal (designated Peak-Basal). IC50 values were typically calculated as the concentration that inhibited 50% of the Peak-Basal signal (Table A).
(§2) The day prior to performing the assay, RBL-2H3 cells are plated in 50 μL of complete medium in a 384 well plate. Cells are grown at 37° C./6% CO2 overnight and grow to 50-60% confluence by the next day. On the assay day, 1.5 μM Fluo-4-AM dye (Invitrogen) in complete medium is added and incubated for 1 hour at RT. Cells are washed twice in Ca^2+-free HBSS buffer and 35 μL Ca^2+-free HBSS buffer is added to each well. 10 μL of a test compound prepared in a Ca^2+-free HBSS solution at 4.5× of the desired concentration is added to a well and incubated for 5 minutes at RT. 10 μL of thapsigargin prepared in a Ca^2+-free HBSS solution at 5.5× of the desired concentration (5.5 uM) is added to each well and incubated for an additional 25 minutes. The initial baseline fluorescence signal is measured with a FLIPR^384 (Molecular Devices) plate reader. 5 μL of 12× calcium in HBSS (12 mM) is added and changes in cellular fluorescence are measured with the FLIPR^384 plate reader. In each well, the change in the fluorescent signal as a function of time due to calcium entry into the cell is determined by calculating the difference between the fluorescent signal measured 7 seconds after calcium addition and the initial baseline fluorescence signal at time zero (t=0). This parameter is designated Upslope. The IC50 value is calculated as the concentration at which 50% of the Upslope is inhibited.

Row | Compound | IC50 [µM]
1 | Cc1ccc(-c2csc(NC(=O)c3ccccc3)c2C(=O)O)o1 [2-benzamido-4-(5-methylfuran-2-yl)thiophene-3-carboxylic acid] | < 10
2 | Cc1cc(-c2csc(NC(=O)c3cccc(F)c3)c2C(=O)O)n(C)n1 [4-(1,3-dimethyl-1H-pyrazol-5-yl)-2-(3-fluorobenzamido)thiophene-3-carboxylic acid] | < 10
3 | Cc1cc(-c2csc(NC(=O)c3snnc3C)c2C(=O)O)n(C)n1 [4-(1,3-dimethyl-1H-pyrazol-5-yl)-2-(4-methyl-1,2,3-thiadiazole-5-carboxamido)thiophene-3-carboxylic acid] | < 10
4 | Cn1cnc(C(=O)Nc2scc(-c3cnn(-c4ccc(Cl)cc4)c3)c2C(=O)O)c1 [4-(1-(4-chlorophenyl)-1H-pyrazol-4-yl)-2-(1-methyl-1H-imidazole-4-carboxamido)thiophene-3-carboxylic acid] | < 10
5 | Cc1nnsc1C(=O)Nc1scc(-c2cnn(-c3ccc(Cl)cc3)c2)c1C(=O)O [4-(1-(4-chlorophenyl)-1H-pyrazol-4-yl)-2-(4-methyl-1,2,3-thiadiazole-5-carboxamido)thiophene-3-carboxylic acid] | < 10
6 | O=C(Nc1scc(-c2cnn(-c3ccc(Cl)cc3)c2)c1C(=O)O)c1cnccn1 [4-(1-(4-chlorophenyl)-1H-pyrazol-4-yl)-2-(pyrazine-2-carboxamido)thiophene-3-carboxylic acid] | < 10
7 | O=C(Nc1scc(-c2cnn(-c3ccc(Cl)cc3)c2)c1C(=O)O)c1ccnnc1 [4-(1-(4-chlorophenyl)-1H-pyrazol-4-yl)-2-(pyridazine-4-carboxamido)thiophene-3-carboxylic acid] | < 10
8 | O=C(Nc1scc(-c2cnn(-c3ccc(Cl)cc3)c2)c1C(=O)O)c1cncnc1 [4-(1-(4-chlorophenyl)-1H-pyrazol-4-yl)-2-(pyrimidine-5-carboxamido)thiophene-3-carboxylic acid] | < 10
9 | O=C(Nc1scc(-c2nc3ccccc3n2C(F)F)c1C(=O)O)c1cccc(F)c1 [4-(1-(difluoromethyl)-1H-benzo[d]imidazol-2-yl)-2-(3-fluorobenzamido)thiophene-3-carboxylic acid] | < 10
10 | Cc1nnsc1C(=O)Nc1scc(-c2c(C)nn(-c3ccccc3)c2C)c1C(=O)O [4-(3,5-dimethyl-1-phenyl-1H-pyrazol-4-yl)-2-(4-methyl-1,2,3-thiadiazole-5-carboxamido)thiophene-3-carboxylic acid] | < 10
11 | Cc1nc(N2CCCCC2)ncc1-c1csc(NC(=O)c2cnccn2)c1C(=O)O [4-(4-methyl-2-(piperidin-1-yl)pyrimidin-5-yl)-2-(pyrazine-2-carboxamido)thiophene-3-carboxylic acid] | < 10
12 | Cc1nc(N2CCCCC2)ncc1-c1csc(NC(=O)c2ccnnc2)c1C(=O)O [4-(4-methyl-2-(piperidin-1-yl)pyrimidin-5-yl)-2-(pyridazine-4-carboxamido)thiophene-3-carboxylic acid] | < 10
13 | Cc1nc(N2CCCCC2)ncc1-c1csc(NC(=O)c2cncnc2)c1C(=O)O [4-(4-methyl-2-(piperidin-1-yl)pyrimidin-5-yl)-2-(pyrimidine-5-carboxamido)thiophene-3-carboxylic acid] | < 10
14 | O=C(CCc1cccc(F)c1)Nc1scc(-c2ccc(Cl)nc2)c1C(=O)O [4-(6-chloropyridin-3-yl)-2-(3-(3-fluorophenyl)propanamido)thiophene-3-carboxylic acid] | < 10
15 | O=C(Nc1scc(-c2ccc(Cl)nc2)c1C(=O)O)c1cccc(F)c1 [4-(6-chloropyridin-3-yl)-2-(3-fluorobenzamido)thiophene-3-carboxylic acid] | < 10
16 | O=C(Nc1scc(-c2cc3ccccc3s2)c1C(=O)O)c1cc2ccccc2o1 [4-(benzo[b]thiophen-2-yl)-2-(benzofuran-2-carboxamido)thiophene-3-carboxylic acid] | < 10
17 | O=C(Nc1scc(-c2ccc3nonc3c2)c1C(=O)O)c1cc2ccccc2o1 [4-(benzo[c][1,2,5]oxadiazol-5-yl)-2-(benzofuran-2-carboxamido)thiophene-3-carboxylic acid] | < 10
18 | O=C(Nc1scc(-c2nc3ccccc3s2)c1C(=O)O)c1cc2ccccc2o1 [4-(benzo[d]thiazol-2-yl)-2-(benzofuran-2-carboxamido)thiophene-3-carboxylic acid] | < 10
19 | O=C(Nc1scc(-c2ccc3scnc3c2)c1C(=O)O)c1cc2ccccc2o1 [4-(benzo[d]thiazol-5-yl)-2-(benzofuran-2-carboxamido)thiophene-3-carboxylic acid] | < 10
20 | O=C(Nc1scc(-c2cnccn2)c1C(=O)O)c1ccnnc1 [4-(pyrazin-2-yl)-2-(pyridazine-4-carboxamido)thiophene-3-carboxylic acid] | < 10
21 | O=C(Nc1scc(-c2cccs2)c1C(=O)O)c1ccccc1Cl [5′-(2-chlorobenzamido)-2,3′-bithiophene-4′-carboxylic acid] | < 10
22 | Cc1ccc(-c2csc(NC(=O)c3cccc(F)c3)c2C(=O)O)s1 [5′-(3-fluorobenzamido)-5-methyl-2,3′-bithiophene-4′-carboxylic acid] | < 10
23 | O=C(Nc1scc(-c2cccs2)c1C(=O)O)c1ccc(F)cc1 [5′-(4-fluorobenzamido)-2,3′-bithiophene-4′-carboxylic acid] | < 10
24 | O=C(Nc1scc(-c2ccc(Br)s2)c1C(=O)O)c1cc2ccccc2o1 [5′-(benzofuran-2-carboxamido)-5-bromo-2,3′-bithiophene-4′-carboxylic acid] | < 10
25 | O=C(Nc1scc(-c2ccc(Cl)s2)c1C(=O)O)c1cc2ccccc2o1 [5′-(benzofuran-2-carboxamido)-5-chloro-2,3′-bithiophene-4′-carboxylic acid] | < 10
26 | Cc1ccc(-c2csc(NC(=O)c3cc4ccccc4o3)c2C(=O)O)s1 [5′-(benzofuran-2-carboxamido)-5-methyl-2,3′-bithiophene-4′-carboxylic acid] | < 10
27 | COc1ccc(/C=C/C(=O)Nc2scc(-c3cccs3)c2C(=O)O)cc1OC [(E)-5′-(3-(3,4-dimethoxyphenyl)acrylamido)-2,3′-bithiophene-4′-carboxylic acid] | < 10
28 | O=C(Nc1cc(-c2nc3ccccc3[nH]2)cs1)c1cccc(F)c1 [N-(4-(1H-benzo[d]imidazol-2-yl)thiophen-2-yl)-3-fluorobenzamide] | < 10

Test system: not listed separately
Experiment: Fluorescence-based assay of store-operated calcium entry in Orai1/STIM1 stable cells (Table A JR251)
Type: cell-based
Details: Homo sapiens, 50% inhibition of Peak-Basal fluorescence signal
Protocol: A. Fluorescence-Based Assay of Store-Operated Calcium Entry in Orai1/STIM1 Stable Cells.
Cells stably expressing recombinant human STIM1 and Orai1 were generated by transfecting a human Orai1 expression plasmid (pcDNA3.1-Orai1-cmyc) into HEK-293 cells stably overexpressing human STIM1 (Roos et al. 2005 JCB 169(3): 435-445). Colonies of cells stably expressing both STIM1 and Orai1 proteins were selected and then subcloned by limiting dilution. Cells were cultured at 37° C./6% CO2 in complete medium with 10% FBS and appropriate selection markers.
as §1

Row | Compound | IC50 [µM]
29 | O=C(Nc1scc(-c2cnc(C(F)(F)F)nc2)c1C(=O)O)c1cc2ccccc2o1 [F] | ≤ 0.5
30 | O=C(CCc1cccc(F)c1)Nc1scc(-c2ccc(Cl)nc2)c1C(=O)O [G] | 1 to 10
31 | O=C(Nc1scc(-c2ccc3scnc3c2)c1C(=O)O)c1cc2ccccc2o1 [J] | ≤ 0.5
32 | Cc1ccc(-c2csc(NC(=O)c3cc4ccccc4o3)c2C(=O)O)c2ccccc12 [K] | ≤ 0.5
33 | Cc1ccc(-c2csc(NC(=O)c3cc4ccccc4o3)c2C(=O)O)c2cccnc12 [L] | ≤ 0.5

Test system: RBL-2H3 cells
Experiment: Fluorescence-based assay of store-operated calcium entry in RBL-2H3 cells
Type: cell-based
Details: Rattus norvegicus, thapsigargin, 50% inhibition of Upslope
Protocol: B. Fluorescence-Based Assay of Store-Operated Calcium Entry in RBL-2H3 Cells.
RBL-2H3 cells were obtained from ATCC and maintained in complete medium with 10% FBS at 37° C./6% CO2.
as §2

Row | Compound | IC50 [µM]
34 | Cc1ccc(-c2csc(NC(=O)c3cccc(F)c3)c2C(=O)O)s1 [A] | 1 to 10
35 | O=C(Nc1scc(-c2ccc(Cl)s2)c1C(=O)O)c1cc2ccccc2o1 [B] | ≤ 0.5
36 | Cc1csc(-c2csc(NC(=O)c3cccc(F)c3)c2C(=O)O)n1 [C] | 1 to 10
37 | O=C(Nc1scc(-c2nc3ccccc3n2C(F)F)c1C(=O)O)c1cc2ccccc2o1 [Compound I] | 1 to 10
38 | COc1ccc(-c2csc(NC(=O)c3cccc(F)c3)c2C(=O)O)cn1 [D] | 1 to 10
39 | COc1ccc(-c2csc(NC(=O)c3cc4ccccc4o3)c2C(=O)O)cn1 [E] | 1 to 10
40 | O=C(Nc1scc(-c2cnc(C(F)(F)F)nc2)c1C(=O)O)c1cc2ccccc2o1 [F] | ≤ 0.5
41 | O=C(Nc1scc(-c2c[nH]c3ccccc23)c1C(=O)O)c1cccc(F)c1 [H] | 1 to 10
42 | O=C(Nc1scc(-c2ccc3scnc3c2)c1C(=O)O)c1cc2ccccc2o1 [J] | ≤ 0.5
43 | Cc1ccc(-c2csc(NC(=O)c3cc4ccccc4o3)c2C(=O)O)c2ccccc12 [K] | 1 to 10
44 | Cc1ccc(-c2csc(NC(=O)c3cc4ccccc4o3)c2C(=O)O)c2cccnc12 [L] | ≤ 0.5

— patent US8372991B2, “Trisubstituted thiophenes that modulate intracellular calcium” (Calcimedica, Inc., priority 2008, dated 2013)
